Key:
[1] = system: PC3 (prostate); assay: In vitro cytotoxic activity MTT assay, PC3; type: cell-based; conditions: Homo sapiens, 96 hours exposure, read-out: IC50, concentration eliciting a 50% inhibition of cell proliferation
Protocol: (§1) Compounds 1-16 were screened for their in vitro cytotoxic activity utilizing a 3-(4,5-dimethyl-thiazol-2-yl)-2,5-diphenyltetrazolium bromide (MTT) assay against selected cancer human cell lines consisting of PC3 (prostate), HCT116 (colon), A375 (melanoma), H1299 (lung), MIAPaCa-2 (pancreas), HL60 (leukemia), MCF7 (breast), MDA-MB-231 (breast) (T. Mosmann, J. Immunol. Meth., 1983, 65, 55-63). The cells were cultured at 37° C. in RMPI1640 medium supplemented with 10% fetal bovine serum, 50 IU/mL penicillin, and 50 μg/mL streptomycin in a 5% CO2 incubator. All cells were sub-cultured 3 times/week by trypsinisation. Viable cells were seeded and allowed to adhere for 12 h before a test drug was added in 96-well plates at an initial density of 1.0×10^5 cells/mL. Tumour cell lines were separately exposed to various concentrations of the tested compounds followed by incubation at a temperature of 37° C. during 96 h inside a medium of fresh RMPI 1640. Cells were subsequently incubated at 37° C. using MTT at 0.5 mg/mL during 4 h. After removal of supernatant, formazan crystals were dissolved in isopropanol and the optical density was measured at 570 nm. CX-4945 was used as a positive control.

[2] = system: HCT116 (colon); assay: In vitro cytotoxic activity MTT assay, HCT116; type: cell-based; conditions: Homo sapiens, HCT-116, 96 hours exposure, read-out: IC50, concentration eliciting a 50% inhibition of cell proliferation
Protocol: as §1

[3] = system: A375 (melanoma); assay: In vitro cytotoxic activity MTT assay, A375; type: cell-based; conditions: Homo sapiens, A-375, 96 hours exposure, read-out: IC50, concentration eliciting a 50% inhibition of cell proliferation
Protocol: as §1

[4] = system: H1299 (lung); assay: In vitro cytotoxic activity MTT assay, H1299; type: cell-based; conditions: Homo sapiens, NCI-H1299, 96 hours exposure, read-out: IC50, concentration eliciting a 50% inhibition of cell proliferation
Protocol: as §1

[5] = system: MIAPaCa-2 (pancreas); assay: In vitro cytotoxic activity MTT assay, MIAPaCa-2; type: cell-based; conditions: Homo sapiens, MIA PaCa-2, 96 hours exposure, read-out: IC50, concentration eliciting a 50% inhibition of cell proliferation
Protocol: as §1

[6] = system: HL60 (leukemia); assay: In vitro cytotoxic activity MTT assay, HL60; type: cell-based; conditions: Homo sapiens, HL-60, 96 hours exposure, read-out: IC50, concentration eliciting a 50% inhibition of cell proliferation
Protocol: as §1

[7] = system: MCF7 (breast); assay: In vitro cytotoxic activity MTT assay, MCF7; type: cell-based; conditions: Homo sapiens, 96 hours exposure, read-out: IC50, concentration eliciting a 50% inhibition of cell proliferation
Protocol: as §1

[8] = system: MDA-MB-231 (breast); assay: In vitro cytotoxic activity MTT assay, MDA-MB-231; type: cell-based; conditions: Homo sapiens, 96 hours exposure, read-out: IC50, concentration eliciting a 50% inhibition of cell proliferation
Protocol: as §1

[9] = biological target: T1, recombinant human CK2 (RRββ-holoenzyme) (Homo sapiens, UniProt P68400); assay: CK2 Kinase Assay (33P-ATP, substrate peptide RRRDDDSDDD); type: biochemical; conditions: final ATP 15 μM, 10 min at 30 °C; read-out: protein kinase CK2 IC50
T1 construct: purchased Millipore
Protocol: CK2 Kinase Assay was conducted using the protocol as described in Pierre F. et al.; J. Med. Chem. 2011, 54, 635-654. The tested compounds in aqueous solution were added at a volume of 10 μL to a reaction mixture comprising 10 μL of assay dilution buffer (ADB; 20 mM MOPS, pH 7.2, 25 mM β-glycerol phosphate, 5 mM EGTA, 1 mM sodium orthovanadate, and 1 mM dithiothreitol), 10 μL of substrate peptide (RRRDDDSDDD, dissolved in ADB at a concentration of 1mM), 10 μL of recombinant human CK2 (RRββ-holoenzyme, 25 ng dissolved in ADB; Millipore). Reactions were initiated by the addition of 10 μL of ATP solution (90% 75 mMMgCl2, 75 μM ATP (final ATP concentration:15 μM) dissolved in ADB; 10% [γ-33P] ATP (stock 1 mCi/100 μL; 3000 Ci/mmol (Perkin-Elmer) and maintained for 10 min at 30 ° C. The reactions were quenched with 100 μL of 0.75% phosphoric acid and then transferred to and filtered through a phosphor cellulose filter plate (Millipore). After washing each well five times with 0.75% phosphoric acid, the plate was dried under vacuum for 5 min and, following the addition of 15 μL of scintillation fluid to each well, the residual radioactivity was measured using a Wallac luminescence counter. The IC50 values were derived from eight concentrations of test inhibitors.

T1 sequence (P68400 whole entry): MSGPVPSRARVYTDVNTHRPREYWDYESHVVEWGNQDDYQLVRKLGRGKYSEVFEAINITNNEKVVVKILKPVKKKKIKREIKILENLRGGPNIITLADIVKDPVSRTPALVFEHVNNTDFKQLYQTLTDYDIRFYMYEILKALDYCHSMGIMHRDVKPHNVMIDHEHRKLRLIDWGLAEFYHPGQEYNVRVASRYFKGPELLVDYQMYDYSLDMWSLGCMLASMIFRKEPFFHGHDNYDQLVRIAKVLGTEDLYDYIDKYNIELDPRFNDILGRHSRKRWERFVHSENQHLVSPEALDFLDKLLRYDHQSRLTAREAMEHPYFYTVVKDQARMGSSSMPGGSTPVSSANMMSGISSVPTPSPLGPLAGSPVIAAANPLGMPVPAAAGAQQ
T1 sequence (P67870 whole entry partner): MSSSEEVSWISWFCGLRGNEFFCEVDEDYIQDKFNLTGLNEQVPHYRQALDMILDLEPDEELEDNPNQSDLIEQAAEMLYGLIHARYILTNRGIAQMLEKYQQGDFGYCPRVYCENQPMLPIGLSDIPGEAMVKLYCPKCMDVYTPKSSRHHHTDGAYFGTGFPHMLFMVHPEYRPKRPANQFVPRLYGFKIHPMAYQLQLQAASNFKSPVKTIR

Compound O=C(O)c1cc2c(Nc3cccc(Cl)c3)nc3ccncc3c2[nH]1 [Compound 1, 4-((3-chlorophenyl)amino)-1H-pyrrolo[3,2-c][1,6]naphthyridine-2-carboxylic acid] has an IC50 [1] of 2100 nM, an IC50 [2] of 1300 nM and an IC50 [3] of 2900 nM. The IC50 [4] was 1400 nM, the IC50 [5] was 1100 nM and the IC50 [6] was 2500 nM. The IC50 [7] was 4200 nM, the IC50 [8] was 3700 nM and the IC50 [9] was 26 nM.
